Reference: patent publication US12558363B2, “Compositions for clinical complications associated to devices implanted in the urinary tract” (Devicare SL, priority 2019, dated 2026)
“And” between values parts separate entries of the source, which are not always exact repeats. Equal values may be shown once. “Also recorded” adds a separate entry of the source.

Assays:
Mucin = test: Conditioning film generation: accumulated protein on medical device fragment in continuous flow artificial urine system (Lowry); settings: for Quantity of accumulated protein (Mucin), Experiment 1 / Quantity of accumulated protein (Mucin), Experiment 2: 48 hours irrigation of Tygon fragment, pH 6.5; for Quantity of accumulated protein (Mucin), Experiment 1 / Quantity of accumulated protein (Mucin), Experiment 2 / Quantity of accumulated protein (Mucin), Average: NAC 20 mg/L and/or phytate 2 ppm; for Quantity of accumulated protein (Mucin), Average: average of Experiments 1 and 2, 48 hours; for Reduction in the precipitation of protein, compounds tested individually: phytate 2 ppm or NAC 20 mg/L alone, compared with the combination
[1] = Struvite crystal formation/adhesion on catheter portions in artificial urine; settings: for Struvite crystals formation ratio (crystals without phytate divided by crystals with phytate) / # struvite crystals with phytate (2 ppm): phytate 2 ppm; for # struvite crystals with phytate (2 ppm): pH 7.2, 37° C., not washed catheter portion
[2] = tested on: Pseudomonas aeruginosa PAO1; format: cell-based; settings: 24 h

Structure (SMILES)	Quantity of accumulated protein (Mucin), Experiment 1 (Mucin) [mg/L]	Quantity of accumulated protein (Mucin), Experiment 2 (Mucin) [mg/L]	Quantity of accumulated protein (Mucin), Average (Mucin) [mg/L]	Reduction in the precipitation of protein, compounds tested individually (Mucin)	Struvite crystals adhered in catheters ([1]; 9.28 g/L NH4+, 1 ppm phytate (FIG. 3B)) [crystals]	Struvite crystals adhered in catheters ([1]; 18.56 g/L NH4+, 1 ppm phytate (FIG. 3D)) [crystals]	Size of struvite crystals formed (electron microscopy) ([1]; 24 h)	Struvite crystals formation ratio (crystals without phytate divided by crystals with phytate) ([1]; time of reaction 12 hours)	# struvite crystals with phytate (2 ppm) ([1]; time of reaction 12 hours)	Struvite crystals formation ratio (crystals without phytate divided by crystals with phytate) ([1]; time of reaction 24 hours)	# struvite crystals with phytate (2 ppm) ([1]; time of reaction 24 hours)	Number of adhered bacteria in the surface of incubated catheters [2]
CC(=O)N[C@@H](CS)C(=O)O [NAC, N-acetylcysteine, reference compound]	30.0	66.5	48.3	a reduction in the precipitation was observed but of less intensity	–	–	–	–	–	–	–	–
O=P(O)(O)O[C@H]1[C@H](OP(=O)(O)O)[C@@H](OP(=O)(O)O)[C@H](OP(=O)(O)O)[C@@H](OP(=O)(O)O)[C@H]1OP(=O)(O)O [phytate, myo-inositol-hexaphosphate]	33.0	57.5	45.3	a reduction in the precipitation was observed but of less intensity	2	5	smaller than the crystals formed in absence of phytate	1.45	20	3.85 and 2.4	6.5 and 5	significative decrease; also recorded: lower
